One data set in a line: physchem. The conditions noted are these: 1-octanol/phosphate buffer, pH 7.4.
The nature of data set [1]: in vitro. The conditions noted are these: human, pooled liver microsomes. For orientation: Liver microsomes are vesicles of endoplasmic reticulum, rich in cytochrome P450 enzymes.
Data set [2] in a line: in vitro. The following applies: rat, pooled liver microsomes.

Turning to `COc1cc(OC)cc(C(=O)Nc2nc(C3CC3)c(N3CCN(C)CC3)s2)c1`, in “physchem”, the log distribution coefficient (logD) came out at 4.
Still for that read-out and setting: for `COc1cc(OC)cc(C(=O)Nc2nc(-c3cccnc3)c(N3CCN(C)CC3)s2)c1` the value was 4.1; for `COc1cc(OC)cc(C(=O)Nc2nc(C3CCC3)c(N3CCN(C)CC3)s2)c1`, 4.6.
The same measure, in the same setting: for `COc1cc(OC)cc(C(=O)Nc2nc(-c3ccccc3)c(CCCN3CCN(C)CC3)s2)c1` the value was 4.1; for `COc1cc(OC)cc(C(=O)Nc2nc(-c3ccncc3)c(N3CCN(C)CC3)s2)c1`, 4.1.
The compound `Cc1c(C(=O)Nc2nc(C3CCC3)c(CCN3CCCCC3)s2)cnn1-c1ccc(F)cc1` showed a pH-dependent lipophilicity (logD) in “physchem” of 4.1. Further, the intrinsic clearance (CLint scaled) at 0.75 h, 0.2 µM was 527 mL/min/kg in the data set “in vitro [1]” and greater than 1000 mL/min/kg in “in vitro [2]”.
As for `Cc1c(C(=O)Nc2nc(C3CCC3)c(N3CCN(C)CC3)s2)cnn1-c1ccc(F)cc1`, in “physchem”, the log distribution coefficient (logD) came to 4.8.
In the data set “physchem”, `COc1cc(OC)cc(C(=O)Nc2nc(-c3ccccc3)c(CN3CCCCC3)s2)c1` returned a logD of 4.9.
The compound `CN1CCN(c2sc(NC(=O)c3cc(-c4ccccc4)n(C)n3)nc2C2CCC2)CC1` returned a log distribution coefficient (logD) in the data set “physchem” of 4.9.
Compound `Cc1nn(-c2ccc(F)cn2)cc1C(=O)Nc1nc(C2CCC2)c(CCN2CCCCC2)s1` had a logD in the data set “physchem” of 4.5. Also, the intrinsic metabolic clearance (CLint scaled) at 0.75 h, 0.2 µM came to 120 mL/min/kg in “in vitro [1]” and 798 mL/min/kg in “in vitro [2]”.
The compound `COc1cc(OC)cc(C(=O)Nc2nc(-c3ccccc3)c(CCCN3CCOCC3)s2)c1` displayed a log distribution coefficient (logD) in the data set “physchem” of 4.7.
In turn, `Cc1c(C(=O)Nc2nc(C3CCC3)c(N3CCN(C)CC3)s2)cnn1-c1ccc(C#N)cc1` showed a logD in the data set “physchem” of 4.
Still for that read-out and setting: for `Cc1c(C(=O)Nc2nc(C3CCC3)c(N3CCN(C)CC3)s2)cnn1C1CCC(F)(F)CC1` the value was 4.3.
Turning to `COc1cc(OC)cc(C(=O)Nc2nc(-c3ccccn3)c(N3CCN(C)CC3)s2)c1`, the pH-dependent lipophilicity (logD) in the data set “physchem” is 3.7.
In the case of `COc1cc(OC)cc(C(=O)Nc2nc(-c3ccccc3)c(C3CCN(C)CC3)s2)c1`, in the data set “physchem”, the logD is 3.6.
On the same count and under the same terms, under `COc1cc(OC)cc(C(=O)Nc2nc(-c3ccccc3)c(CCCN(C)C)s2)c1` stands 3.5; under `COc1cc(OC)cc(C(=O)Nc2nc(-c3ccccc3)c(CCCN3CCCCC3)s2)c1`, 4.1.

What is called logD is lipophilicity at a set pH, counting ionised and neutral species. Broadly, the CLint scaled is a measure of how fast metabolising enzymes remove a compound, apart from limits set by blood flow. A lower CLint scaled goes with greater metabolic stability.

The values above are taken from ChEMBL document CHEMBL4385652, “Discovery of a novel orally active TRPV4 inhibitor: Part 1. Optimization from an HTS hit” (Bioorg Med Chem, 2019).
